ChEMBL document CHEMBL1132066, “Synthesis of alpha-C(1-->3)-mannopyranoside of N-acetylgalactosamine, a new beta-galactosidase inhibitor” (Bioorg Med Chem Lett, 1999)
pIC50: −log10 of the molar value.

Columns and labels:
[1] = target: Beta-galactosidase (Escherichia coli) (UniProt Q8VNN2); test: Compound was evaluated for the percentage inhibition of beta-galactosidase enzyme from Escherichia coli at the concentration of 1 mM
[2] = system: Beta-galactosidase (Canavalia ensiformis); test: Compound was evaluated for the percentage inhibition of beta-galactosidase enzyme from jack bean at the concentration of 1 mM
Beta-galactosidase = Beta-galactosidase (Escherichia coli, UniProt Q8VNN2); test: Concentration required to inhibit beta-galactosidase enzyme by 50% from Escherichia coli was reported
Sequence of Beta-galactosidase (Q8VNN2 whole entry): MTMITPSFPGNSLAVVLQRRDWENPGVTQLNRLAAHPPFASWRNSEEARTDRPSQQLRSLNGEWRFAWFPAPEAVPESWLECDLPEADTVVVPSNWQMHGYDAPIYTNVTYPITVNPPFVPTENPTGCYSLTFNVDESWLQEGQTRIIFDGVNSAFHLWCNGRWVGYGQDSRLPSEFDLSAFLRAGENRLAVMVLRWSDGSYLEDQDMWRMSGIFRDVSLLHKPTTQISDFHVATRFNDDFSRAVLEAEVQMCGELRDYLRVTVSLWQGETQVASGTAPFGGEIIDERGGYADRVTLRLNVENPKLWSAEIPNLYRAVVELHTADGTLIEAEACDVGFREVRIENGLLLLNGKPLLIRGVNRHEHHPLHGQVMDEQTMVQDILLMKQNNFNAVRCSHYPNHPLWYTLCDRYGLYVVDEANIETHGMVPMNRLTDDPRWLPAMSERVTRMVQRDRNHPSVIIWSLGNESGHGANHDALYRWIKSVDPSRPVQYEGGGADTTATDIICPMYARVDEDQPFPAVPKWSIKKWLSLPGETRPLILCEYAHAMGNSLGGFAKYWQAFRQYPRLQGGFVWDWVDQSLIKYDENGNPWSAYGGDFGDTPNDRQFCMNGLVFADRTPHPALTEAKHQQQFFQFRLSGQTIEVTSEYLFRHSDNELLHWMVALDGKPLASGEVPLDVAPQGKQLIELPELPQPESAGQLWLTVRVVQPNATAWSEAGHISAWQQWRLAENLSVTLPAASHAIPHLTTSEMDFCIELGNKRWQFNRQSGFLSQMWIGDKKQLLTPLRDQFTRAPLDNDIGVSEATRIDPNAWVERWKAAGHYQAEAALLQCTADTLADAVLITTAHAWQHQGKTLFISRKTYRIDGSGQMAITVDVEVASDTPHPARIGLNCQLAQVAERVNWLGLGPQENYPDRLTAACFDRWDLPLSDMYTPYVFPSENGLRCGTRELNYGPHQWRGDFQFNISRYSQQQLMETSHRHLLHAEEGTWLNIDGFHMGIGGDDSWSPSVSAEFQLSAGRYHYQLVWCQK

Sequence of Beta-galactosidase (Escherichia coli) (Q8VNN2 whole entry, looked up): as the sequence (Q8VNN2 whole entry) above

inhibition [1]: 86% | inhibition [2]: 92% | pIC50 (Beta-galactosidase): 3.30
Structure (SMILES): CC(=O)N[C@@H]1C(O)O[C@H](CO)[C@H](O)[C@@H]1C[C@H]1O[C@H](CO)[C@@H](O)[C@H](O)[C@@H]1O.CC(=O)N[C@H]1C(O)O[C@H](C(O)CO)[C@@H]1C[C@H]1O[C@H](CO)[C@@H](O)[C@H](O)[C@@H]1O (stereo partly drawn)
